From article PMC5008829, “Computational Analysis of the Ligand Binding Site of the Extracellular ATP Receptor, DORN1” (PLoS ONE, 2016)

Tests used:
Assay in all cases: radioligand saturation binding, Sephadex G-25 gel filtration
[1] = target: T1, DORN1 WT (LEC), lectin domain only (Arabidopsis thaliana, UniProt Q9LSR8); settings: [γ-32P]ATP labelled compound; 10 mM HEPES pH 7.5, 5 mM MgCl2, on ice 30 min
T1 construct: gene LECRK19; L-type lectin domain only, recombinant from E. coli (GST fusion likely)
T1 sequence (Q9LSR8 22-257 limits assumed): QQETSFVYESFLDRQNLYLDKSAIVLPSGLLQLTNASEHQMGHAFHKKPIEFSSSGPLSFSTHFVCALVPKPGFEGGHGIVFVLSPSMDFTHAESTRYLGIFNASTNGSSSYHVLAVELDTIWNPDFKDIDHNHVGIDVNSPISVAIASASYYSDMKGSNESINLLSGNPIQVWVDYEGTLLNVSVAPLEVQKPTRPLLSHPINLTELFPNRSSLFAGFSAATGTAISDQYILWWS
Source text: radioligand saturation binding, Sephadex G-25 gel filtration on DORN1 WT (LEC), lectin domain only | WT (LEC): lectin domain only, WT (ECD): extracellular domain

[2] = target: T2, DORN1 WT (ECD), extracellular domain (Arabidopsis thaliana, UniProt Q9LSR8)
T2 construct: gene LECRK19; extracellular domain, signal peptide removed, pGEX-5X N-terminal GST fusion, E. coli BL21-AI, glutathione Sepharose; primers encode QETSFVY...APHKKVST
T2 sequence (Q9LSR8 23-288): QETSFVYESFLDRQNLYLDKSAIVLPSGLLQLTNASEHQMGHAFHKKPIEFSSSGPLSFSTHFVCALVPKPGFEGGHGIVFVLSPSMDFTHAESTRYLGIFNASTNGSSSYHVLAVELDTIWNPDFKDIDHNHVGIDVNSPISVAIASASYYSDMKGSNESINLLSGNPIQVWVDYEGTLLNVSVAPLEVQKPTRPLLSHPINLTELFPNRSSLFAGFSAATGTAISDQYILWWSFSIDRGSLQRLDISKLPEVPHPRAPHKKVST

[3] = target: T3, DORN1 WT (ECD), extracellular domain (Arabidopsis thaliana, UniProt Q9LSR8, DEL141-146)
T3 construct: gene LECRK19; extracellular domain, signal peptide removed, pGEX-5X N-terminal GST fusion, E. coli BL21-AI, glutathione Sepharose; primers encode QETSFVY...APHKKVST
T3 sequence (Q9LSR8 with tags, fused parts or gaps DEL141-146): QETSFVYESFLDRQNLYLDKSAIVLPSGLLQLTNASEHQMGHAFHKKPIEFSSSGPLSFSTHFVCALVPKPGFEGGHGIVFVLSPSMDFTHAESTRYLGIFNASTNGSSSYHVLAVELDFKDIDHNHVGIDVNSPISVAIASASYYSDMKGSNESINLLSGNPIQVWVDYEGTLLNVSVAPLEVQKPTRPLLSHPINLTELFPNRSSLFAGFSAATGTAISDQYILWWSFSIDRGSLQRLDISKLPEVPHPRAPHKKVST

[4] = target: T4, DORN1 WT (ECD), extracellular domain (Arabidopsis thaliana, UniProt Q9LSR8, DEL116-118)
T4 construct: gene LECRK19; extracellular domain, signal peptide removed, pGEX-5X N-terminal GST fusion, E. coli BL21-AI, glutathione Sepharose; primers encode QETSFVY...APHKKVST
T4 sequence (Q9LSR8 with tags, fused parts or gaps DEL116-118): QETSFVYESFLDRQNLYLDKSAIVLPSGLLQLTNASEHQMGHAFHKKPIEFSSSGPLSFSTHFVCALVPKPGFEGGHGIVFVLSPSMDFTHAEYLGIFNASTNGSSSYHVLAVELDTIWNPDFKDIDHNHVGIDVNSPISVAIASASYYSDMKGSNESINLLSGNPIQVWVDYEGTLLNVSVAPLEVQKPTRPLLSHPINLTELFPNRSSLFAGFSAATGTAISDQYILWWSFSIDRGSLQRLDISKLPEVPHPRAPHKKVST

SMILES: Nc1ncnc2c1ncn2[C@@H]1O[C@H](COP(=O)(O)OP(=O)(O)OP(=O)(O)O)[C@@H](O)[C@H]1O [ATP]
- Kd [1]: 52.6 nM
- Kd [2]: 38.3 nM
- Kd [3]: 190 nM
- Kd [4]: 534 nM
